Test results reported in US20230219911A1, “BENZOTHIAZOLE DERIVATIVES AND USES THEREOF” (SHENYANG PHARMACEUTICAL UNIVERSITY, priority 2020, published 2023).

Legend:
[1] = target: T1, sEH enzyme (human recombinant) (Homo sapiens, UniProt P34913); test: in vitro IC50 of soluble epoxide hydrolase (sEH) by fluorescence analysis; assay type: biochemical
T1 construct: purchased Cayman Chemical
T1 sequence (P34913 1-555): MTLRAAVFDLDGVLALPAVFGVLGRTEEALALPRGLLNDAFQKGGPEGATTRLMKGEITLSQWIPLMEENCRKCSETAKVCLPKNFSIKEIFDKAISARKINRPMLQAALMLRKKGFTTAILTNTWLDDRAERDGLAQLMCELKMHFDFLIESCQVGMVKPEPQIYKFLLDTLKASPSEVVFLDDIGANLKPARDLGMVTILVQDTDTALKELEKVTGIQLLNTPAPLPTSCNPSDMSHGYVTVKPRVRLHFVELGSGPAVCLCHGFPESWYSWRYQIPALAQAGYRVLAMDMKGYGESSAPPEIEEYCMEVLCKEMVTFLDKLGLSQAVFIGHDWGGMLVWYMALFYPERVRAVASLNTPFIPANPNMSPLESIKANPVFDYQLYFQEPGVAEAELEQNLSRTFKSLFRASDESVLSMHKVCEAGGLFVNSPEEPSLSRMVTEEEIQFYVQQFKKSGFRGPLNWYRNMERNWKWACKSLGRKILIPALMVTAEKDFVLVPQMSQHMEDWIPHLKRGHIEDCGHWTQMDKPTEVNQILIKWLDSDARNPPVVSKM
Experimental: The benzothiazole skeleton compounds according to the above formula I of the present invention were tested for the in vitro sEH enzyme activity by fluorescence analysis. […] 12 μL of sEH enzyme (human recombinant, 0.5 mg/mL, Cayman Chemical) was diluted with 588 μL of buffer (25 mM bis-Tris, pH 7.0). […] The inhibitions at different concentrations for the compound were respectively measured in accordance with the inhibition assay, to calculate IC50.

[2] = test system: carrageenan-induced paw swelling in KM mice; test: Measurement of anti-inflammatory effect, carrageenan-induced paw swelling; assay type: in vivo; conditions: intraperitoneal injection 1 hour before carrageenan, FIG. 3
Experimental: 1 hour in advance, the mice were intraperitoneally injected with the solutions of the compounds of Examples 12, 18, 27, and 40 (10% PEG 400, 10% Tween 80) or the blank solvent, respectively. Taking the initial paw thickness of the mice before modeling as 100%, the changes in the paw thickness of the mice were measured.

[3] = test system: STZ-induced retinopathy model Wistar rats; test: Improvement effect on diabetic retinopathy, STZ-induced retinopathy model; assay type: in vivo; conditions: 0.1% eye drops topically every day, after 6 months, FIG. 5
Experimental: Male Wistar rats (180 to 200 g) (Experimental Animal Center, Hebei Medical University) were intraperitoneally injected with streptozotocin STZ (60 mg/kg) to prepare a diabetic model, and were fed for 3 months to induce a retinopathy model (Miyamoto K, Khosrof S, Bursell S E, et al. Prevention of leukostasis and vascular leakage in streptozotocin-induced diabetic retinopathy via intercellular adhesion molecule-1 inhibition. Proc Natl Acad Sci USA, 1999, 96(19): 10836-10841). The compound of Example 40 was dissolved in 10% hydroxypropyl-p-cyclodextrin solution, to be prepared into eye drops with a content of 0.1% for the compound of Example 40. The rats were topically administrated in eyes every day.

[4] = test system: lipopolysaccharide-injected KM mice, forced swimming test; test: Measurement of antidepressant effect, lipopolysaccharide / forced swimming test; assay type: in vivo; conditions: subcutaneous injection 23 hours after lipopolysaccharide, test 1 hour later, FIG. 7
Experimental: Male KM mice (6 to 8 weeks old) (SPF (Beijing) Biotechnology Co., Ltd.) swam in advance for 10 min, and were injected with lipopolysaccharide (0.5 mg/kg). After 23 hours, the mice were subcutaneously injected with the solutions of the compounds of Examples 12 and 40 or the blank solvent. After 1 hour, the mice were subjected to the forced swimming test for 6 min, and the immobility time (s) in later 4 minute for the mice in each group was recorded.

[5] = target: T1, sEH enzyme (human recombinant); test: in vitro sEH enzyme activity by fluorescence analysis, single concentration inhibition; assay type: biochemical; conditions: compound 0.1 μM; human recombinant sEH; PHOME substrate; 37° C. 15 min; read-out: sEH % inhibition, @ 0.1 μM
Experimental: The benzothiazole skeleton compounds (concentration: 0.1 μM) according to the above formula I of the present invention were tested for the in vitro sEH enzyme activity by fluorescence analysis.
12 μL of sEH enzyme (human recombinant, 0.5 mg/mL, Cayman Chemical) was diluted with 588 μL of buffer (25 mM bis-Tris, pH 7.0). The fluorescent substrate was PHOME (cyano-(6-methoxy-naphthalen-2-yl)-methyl (3-phenyl-oxiranyl)-acetate) in DMSO (10 μM, Cayman Chemical). The compound to be tested was dissolved in 100% DMSO at a concentration of 4 μM. 185 μL of buffer (25 mM bis-Tris, pH 7.0), 5 μL of compound solution, and 5 μL of diluted sEH enzyme were added to the wells of a 96-well plate, and finally 5 μL of substrate solution was added to initiate the reaction. After incubating at 37° C. for 15 min, the fluorescence signal was measured with a microplate reader (excitation wavelength 330 nm, emission wavelength 465 nm).
Inhibition (%)=(F0−F1)/(F0)×100.

[6] = test system: carrageenan inflammatory pain model SD rats; test: Measurement of analgesic effect, carrageenan inflammatory pain model, hot plate; assay type: in vivo; conditions: intragastric suspension 15 mg/mL, 1 hour before modeling, FIG. 6
Experimental: Male SD rats (6 to 8 weeks old) (SPF (Beijing) Biotechnology Co., Ltd.) were subcutaneously injected with 50 μL of 1% λ-carrageenan saline solution at planta to prepare an inflammatory pain model (Rose T E, Morisseau C, Liu J Y, et al. 1-Aryl-3-(1-acylpiperidin-4-yl)urea inhibitors of human and murine soluble epoxide hydrolase: structure-activity relationships, pharmacokinetics, and reduction of inflammatory pain. J Med Chem, 2010, 53(19): 7067-7075). The compounds of Examples 12 and 40 were added to 0.5% sodium carboxymethylcellulose solution and ground to prepare a suspension with a concentration of 15 mg/mL. 1 hour before modeling, the rats were intragastrically administrated. The changes in the paw withdrawal time of rats were measured with a hot plate dolorimeter.

With `O=C(Nc1ccc(Cl)cc1)Nc1nc2ccc(N(CCN3CCOCC3)C(=O)Nc3ccc(Cl)cc3)cc2s1` [Example 40, 1-{2-[3-(4-chlorophenyl)ureido]benzo[d]thiazol-6-yl}-1-[2-(4-morpholinyl)ethyl]-3-(4-chlorophenyl)urea] the IC50 [1] was 0.11 nM, the “carrageenan-induced paw swelling (paw thickness)” value [2] was “significantly inhibit” and the “effect on paw swelling compared with celecoxib” value [2] was “better than that of celecoxib”. For the same compound, the “non-proliferative diabetic retinopathy symptoms (retinal capillary free pericytes, vascular leakage)” value [3] was “significantly alleviated”, the “immobility time in forced swimming” value [4] was “significantly reduce the immobility time” and the inhibition at 0.1 µM [5] was 43%. The “paw withdrawal time in hot plate dolorimeter” value [6] was “significantly prolong the paw withdrawal time”.
